Experimental data: US8017791B2, “Tri-substituted 2-benzhydryl-5-benzylamino-tetrahydro-pyran-4-ol and 6-benzhydryl-4-benzylamino-tetrahydro-pyran-3-ol analogues, and novel, 3,6-disubstituted pyran derivatives” (Wayne State University, priority 2003, dated 2011)
Structures can show the parent of a compound that is named as a salt.

How the values were obtained:
DAT [1] = target: T1, DAT (Rattus norvegicus, UniProt P23977); test: Inhibition of [3H]DA uptake by DAT into rat striatal synaptosomes; assay type: biochemical; details: for IC50: read-out: DAT uptake, IC50 [3H]DA; for [3H]DA uptake/DAT binding: Table 3, ratio of IC50 values
T1 construct: rat striatum was the source for DAT, and cerebral cortex for SERT and NET; from tissue; P2 synaptosomal fraction for uptake
Description: (§1) Biology. […] Briefly, rat striatum was the source for DAT, and cerebral cortex for SERT and NET. […] Test compounds were dissolved in dimethyl sulfoxide (DMSO) and diluted out in 10% (v/v) DMSO. […] At least five triplicate concentrations of each test compound were studied, spaced evenly around the IC50 value. For DAT uptake assays, uptake of 50 nM [^3H]DA into rat striatal synaptosomes was measured exactly as described by us previously. Briefly, rat striatal P2 membrane fractions were incubated with test compounds for 8 min followed by the additional presence of [^3H]DA for 4 min at 25?. […] Construction of inhibition curves and dissolvement of test compounds were as described above.

DAT [2] = target: T1, DAT; test: Inhibition of [3H]WIN 35,428 binding to DAT
Description: as §1

SERT = target: T2, SERT (Rattus norvegicus, UniProt P31652); test: SERT uptake inhibition, [3H]5-HT; assay type: biochemical; details: in vitro data, Table 4, SERT and NET
T2 construct: rat striatum was the source for DAT, and cerebral cortex for SERT and NET; from tissue; host or cells: rat cerebral cortex
T2 sequence (P31652 whole entry): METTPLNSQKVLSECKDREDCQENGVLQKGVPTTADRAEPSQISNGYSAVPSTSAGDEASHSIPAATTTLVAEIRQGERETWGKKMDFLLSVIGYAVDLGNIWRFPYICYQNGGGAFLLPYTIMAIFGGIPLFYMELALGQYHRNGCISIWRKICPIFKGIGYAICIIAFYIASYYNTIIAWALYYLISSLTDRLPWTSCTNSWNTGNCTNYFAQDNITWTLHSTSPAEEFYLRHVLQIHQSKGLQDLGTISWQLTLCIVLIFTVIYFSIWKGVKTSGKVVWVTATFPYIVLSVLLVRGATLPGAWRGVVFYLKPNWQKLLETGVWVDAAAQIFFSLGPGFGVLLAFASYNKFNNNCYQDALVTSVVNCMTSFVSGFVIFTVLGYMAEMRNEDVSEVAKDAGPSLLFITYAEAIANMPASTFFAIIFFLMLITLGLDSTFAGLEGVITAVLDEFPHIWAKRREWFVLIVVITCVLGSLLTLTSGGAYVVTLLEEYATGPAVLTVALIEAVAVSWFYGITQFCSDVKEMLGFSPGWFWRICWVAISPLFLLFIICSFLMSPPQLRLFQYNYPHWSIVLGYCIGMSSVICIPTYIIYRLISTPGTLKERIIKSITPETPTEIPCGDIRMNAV

T1 sequence (P23977 whole entry): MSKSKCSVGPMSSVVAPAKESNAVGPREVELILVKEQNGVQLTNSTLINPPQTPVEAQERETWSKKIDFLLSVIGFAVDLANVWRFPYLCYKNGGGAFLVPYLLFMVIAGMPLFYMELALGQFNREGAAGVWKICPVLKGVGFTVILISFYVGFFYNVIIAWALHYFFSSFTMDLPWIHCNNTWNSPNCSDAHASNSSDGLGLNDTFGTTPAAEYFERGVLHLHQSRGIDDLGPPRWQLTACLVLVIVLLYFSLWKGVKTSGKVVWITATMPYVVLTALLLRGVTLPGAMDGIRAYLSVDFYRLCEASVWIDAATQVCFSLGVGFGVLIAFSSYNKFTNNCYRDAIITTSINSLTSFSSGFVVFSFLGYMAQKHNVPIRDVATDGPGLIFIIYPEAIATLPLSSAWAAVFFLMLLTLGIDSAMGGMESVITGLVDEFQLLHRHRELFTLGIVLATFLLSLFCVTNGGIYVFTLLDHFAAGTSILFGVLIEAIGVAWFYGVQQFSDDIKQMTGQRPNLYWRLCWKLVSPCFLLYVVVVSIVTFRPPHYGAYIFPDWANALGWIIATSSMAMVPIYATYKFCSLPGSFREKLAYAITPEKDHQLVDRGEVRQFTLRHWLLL

Row | SMILES | melting point | further results
1 | COc1ccc(CN[C@H]2CO[C@@H](C(c3ccccc3)c3ccccc3)C[C@@H]2O)cc1 (as salt: oxalate) [(+)-29a, (2R,4S,5S)-2-benzhydryl-5-(4-methoxy-benzylamino)-tetrahydro-pyran-4-ol] | 230 to 232 °C | 
2 | O[C@H]1C[C@H](C(c2ccccc2)c2ccccc2)OC[C@@H]1NCc1ccc(F)cc1 (as salt: oxalate) [(+)-29b, (2R,4S,5S)-2-benzhydryl-5-(4-fluoro-benzylamino)-tetrahydro-pyran-4-ol] | 223 to 225 °C | 
3 | O[C@H]1C[C@H](C(c2ccccc2)c2ccccc2)OC[C@@H]1NCCc1ccc(F)cc1 (as salt: oxalate) [(+)-29c, (2R,4S,5S)-2-benzhydryl-5-[2-(4-fluoro-phenyl)-ethylamino]-tetrahydropyran-4-ol] | 203 to 205 °C | 
4 | O[C@H]1C[C@H](C(c2ccccc2)c2ccccc2)OC[C@@H]1NCc1ccccc1 (as salt: oxalate) [(+)-29d, (2R,4S,5S)-2-benzhydryl-5-benzylamino-tetrahydro-pyran-4-ol] | 249 to 251 °C | 
5 | Oc1ccc(CN[C@@H]2CC[C@H](C(c3ccccc3)c3ccccc3)OC2)cc1 (as salt: oxalate) [(+)-37a, cis-(3R,6R)-(6-benzhydryl-tetrahydropyran-3-yl)-(4-hydroxy-benzyl)-amine] | 136 to 138 °C | 
6 | COc1ccc(CN[C@@H]2CO[C@H](C(c3ccccc3)c3ccccc3)C[C@H]2O)cc1 (as salt: oxalate) [(−)-29a, (2S,4R,5R)-2-benzhydryl-5-(4-methoxy-benzylamino)-tetrahydropyran-4-ol] | 230 to 232 °C | 
7 | O[C@@H]1C[C@@H](C(c2ccccc2)c2ccccc2)OC[C@H]1NCc1ccc(F)cc1 (as salt: oxalate) [(−)-29b, (2S,4R,5R)-2-benzhydryl-5-(4-fluoro-benzylamino)-tetrahydro-pyran-4-ol] | 222 to 223 °C | 
8 | O[C@@H]1C[C@@H](C(c2ccccc2)c2ccccc2)OC[C@H]1NCCc1ccc(F)cc1 (as salt: oxalate) [(−)-29c, (2S,4R,5R)-2-benzhydryl-5-[2-(4-fluoro-phenyl)-ethylamino]-tetrahydropyran-4-ol] | 205 to 207 °C | 
9 | O[C@@H]1C[C@@H](C(c2ccccc2)c2ccccc2)OC[C@H]1NCc1ccccc1 (as salt: oxalate) [(−)-29d, (2S,4R,5R)-2-benzhydryl-5-benzylamino-tetrahydro-pyran 4-ol] | 250 to 252 °C | 
10 | COc1ccc(CN[C@@H]2CO[C@H](C(c3ccccc3)c3ccccc3)C[C@H]2O)c(OC)c1 (as salt: oxalate) [(−)-29e, (2S,4R,5R)-2-benzhydryl-5-(2,4-dimethoxy-benzylamino)-tetrahydropyran-4-ol] | 208 to 210 °C | 
11 | COc1cc(CN[C@@H]2CO[C@H](C(c3ccccc3)c3ccccc3)C[C@H]2O)cc(OC)c1 (as salt: oxalate) [(−)-29f, (2S,4R,5R)-2-benzhydryl-5-(3,5-dimethoxy-benzylamino)-tetrahydropyran-4-ol] | 245 to 247 °C | 
12 | COc1ccc(CN[C@@H]2C[C@@H](C(c3ccccc3)c3ccccc3)OC[C@@H]2O)cc1 (as salt: oxalate) [(−)-29g, (3R,4R,6S)-6-benzhydryl-4-(4-methoxy-benzylamino)-tetrahydro-pyran-3-ol] | 234 to 235 °C | 
13 | Oc1ccc(CN[C@H]2CC[C@@H](C(c3ccccc3)c3ccccc3)OC2)cc1 (as salt: oxalate) [(−)-37a, cis-(3S,6S)-(6-benzhydryl-tetrahydropyran-3-yl)-(4-hydroxy-benzyl)-amine] | 136 to 138 °C | 
14 | c1ccc(C(c2ccccc2)C2CCC(NCc3c[nH]c4ccccc34)CO2)cc1 (stereo not drawn) (as salt: oxalate) [Compound 16f, Cis-(6-benzhydryl-tetrahydropyran-3-yl)-(3-indole-methyl)-amine] | 177 to 179 °C | 
15 | c1ccc(C(c2ccccc2)C2CCC(NCc3cc4ccccc4[nH]3)CO2)cc1 (stereo not drawn) (as salt: oxalate) [Compound 16g, Cis-(6-benzhydryl-tetrahydropyran-3-yl)-(2-indole-methyl)-amine] | 215 to 216 °C | 
16 | N[C@H]1CC[C@@H](C(c2ccccc2)c2ccccc2)OC1 (relative stereo) (as salt: HCl) [Compound 15, Cis-(6-benzhydryl-tetrahydropyran-3-yl)-amine] | 260 to 261 °C | 

Row | SMILES | melting point | further results
17 | Fc1ccc(CN[C@H]2CCO[C@@H](C(c3ccccc3)c3ccccc3)C2)cc1 (relative stereo) (as salt: oxalate) [Compound 7a, cis-(2-benzhydryl-tetrahydropyran 4-yl)-(4-fluorobenzyl)-amine] | 177 to 181 °C | 
18 | Fc1ccc(CN[C@@H]2CCO[C@@H](C(c3ccccc3)c3ccccc3)C2)cc1 (relative stereo) (as salt: oxalate) [Compound 7b, trans-(2-benzhydryl-tetrahydropyran-4-yl)-(4-fluoro-benzyl)-amine] | 185 to 187 °C | 
19 | Fc1ccc(CN[C@H]2CC[C@@H](C(c3ccccc3)c3ccccc3)OC2)cc1 (relative stereo) (as salt: oxalate) [Compound 16b, Cis-(6-benzhydryl-tetrahydropyran-3-yl)-(4-fluoro-benzyl)-amine] | 229 to 230 °C | 
20 | N#Cc1ccc(CN[C@H]2CC[C@@H](C(c3ccccc3)c3ccccc3)OC2)cc1 (relative stereo) (as salt: oxalate) [Compound 16c, Cis-(6-benzhydryl-tetrahydropyran-3-yl)-(4-cyano-benzyl)-amine] | 241 to 242 °C | 
21 | O=[N+]([O-])c1ccc(CN[C@H]2CC[C@@H](C(c3ccccc3)c3ccccc3)OC2)cc1 (relative stereo) (as salt: oxalate) [Compound 16d, Cis-(6-benzhydryl-tetrahydropyran-3-yl)-(4-nitro-benzyl)-amine] | 236 to 238 °C | 
22 | COc1ccc(CN[C@H]2CC[C@@H](C(c3ccccc3)c3ccccc3)OC2)cc1 (relative stereo) (as salt: oxalate) [Compound 16e, Cis-(6-benzhydryl-tetrahydropyran-3-yl)-(4-methoxy-benzyl)-amine] | 215 to 217 °C | 
23 | Clc1ccc(CN[C@H]2CC[C@@H](C(c3ccccc3)c3ccccc3)OC2)cc1Cl (relative stereo) (as salt: oxalate) [Compound 16i, Cis-(6-benzhydryl-tetrahydropyran-3-yl)-(3,4-dichloro-benzyl)-amine] | 251 to 252 °C | 
24 | Fc1ccc(CN[C@H]2CC[C@@H](C(c3ccccc3)c3ccccc3)OC2)cc1F (relative stereo) (as salt: oxalate) [Compound 16j, Cis-(6-benzhydryl-tetrahydropyran-3-yl)-(3,4-difluoro-benzyl)-amine] | 234 to 235 °C | 
25 | c1ccc(CN[C@H]2CC[C@@H](C(c3ccccc3)c3ccccc3)OC2)cc1 (relative stereo) (as salt: oxalate) [Compound 16k, Cis-(6-benzhydryl-tetrahydropyran-3-yl)-benzyl-amine] | 208 to 210 °C | 
26 | Brc1ccc(CN[C@H]2CC[C@@H](C(c3ccccc3)c3ccccc3)OC2)cc1 (relative stereo) (as salt: oxalate) [Compound 16l, Cis-(6-benzhydryl-tetrahydropyran-3-yl)-(4-bromo-benzyl)-amine] | 250 to 252 °C | 
27 | Ic1ccc(CN[C@H]2CC[C@@H](C(c3ccccc3)c3ccccc3)OC2)cc1 (relative stereo) (as salt: oxalate) [Compound 16m, Cis-(6-benzhydryl-tetrahydropyran-3-yl)-(4-iodo-benzyl)-amine] | 243 to 244 °C | 
28 | Fc1ccc(CCN[C@H]2CC[C@@H](C(c3ccccc3)c3ccccc3)OC2)cc1 (relative stereo) (as salt: oxalate) [Compound 16p, Cis-(6-benzhydryl-tetrahydropyran-3-yl)-[2-(4-fluoro-phenyl)-ethyl]-amine] | 240 to 242 °C | 
29 | N[C@H]1CC[C@@H](C(c2ccccc2)c2ccccc2)OC1 (relative stereo) [Compound 15, Cis-(6-benzhydryl-tetrahydropyran-3-yl)-amine] |  | IC50 (DAT [1]; Table 2, average ± SEM): 251 ± 31 nM; [3H]DA uptake/DAT binding (DAT [1]): 0.32; activity at DAT, in words (DAT [2]): little or no activity at the DAT; IC50 (DAT [2]; Table 2, average ± SEM of three to eight experiments, read-out: DAT binding, IC50, [3H]Win 35,428): 777 ± 41 nM
30 | COc1ccc(CN[C@H]2CC[C@@H](C(c3ccccc3)c3ccccc3)OC2)cc1 (relative stereo) [Compound 16e, Cis-(6-benzhydryl-tetrahydropyran-3-yl)-(4-methoxy-benzyl)-amine] |  | IC50 (DAT [1]; Table 2, average ± SEM): 59.5 ± 11.6 nM; [3H]DA uptake/DAT binding (DAT [1]): 0.71; IC50 (DAT [2]; read-out: IC50 at the DAT): 84 nM
31 | O[C@H]1C[C@H](C(c2ccccc2)c2ccccc2)OC[C@@H]1NCc1ccc2[nH]ccc2c1 [(+)-32b, (2R,4S,5S)-2-benzhydryl-5-[(1H-indol-5-ylmethyl)-amino]-tetrahydropyran-4-ol] |  | IC50 (DAT [1]; Table 4, rat brain): 247 ± 21 nM; IC50 (DAT [2]; Table 4, rat brain, read-out: DAT binding, IC50, [3H]Win 35,428): 494 ± 96 nM
32 | COc1ccc(CN[C@@H]2CO[C@H](C(c3ccccc3)c3ccccc3)C[C@H]2O)cc1 [(−)-29a, (2S,4R,5R)-2-benzhydryl-5-(4-methoxy-benzylamino)-tetrahydropyran-4-ol] |  | blockade of both SERT and NET (SNRI profile), in words (SERT): potent blockers for both SERT and NET; blockade of both SERT and NET (SNRI profile), in words (SERT; listed as (−)29a): dual transport blockers
